Where a SMILES comes first, the peptide text is derived from it. [ ]: non-standard residue; d: D form. pGlu = O=C1CC[C@@H](C(=O)O)N1
Legend:
Format in all cases: in vivo, rat
[1] = tested on: reserpinized male Long-Evans rats; experiment: Locomotor activity of reserpinized rats after intraventricular administration (first series); conditions: rats reserpinized i.p. 10 mg/kg
Protocol: (§1) The MIF analogs were tested for "Parkinsonion" locomotor behavior response by three different test procedures.
In the first series of tests, male Long-Evans rats were prepared with a cannula fixed from the exterior to the lateral ventricle for direct intraventricular administration. The rats were reserpinized i.p. (10 mg/kg), and then MIF or MIF analogs, were given directly into the CSF. Activity of the rats was measured in counts/10 minutes with a digital printout activity meter (Columbus Instruments, model PB 5244, Columbus, Ohio). The results of these tests are as follows

[2] = tested on: male Sprague-Dawley rats with unilateral 6-hydroxy-Dopamine lesion in the substantia nigra; experiment: Duration of L-DOPA-reversed rotational behavior in rats with unilateral 6-hydroxy-Dopamine lesion of the substantia nigra (third series)
Protocol: The MIF analogs were tested for "Parkinsonion" locomotor behavior response by three different test procedures. In the third series of tests, male Sprague-Dawley rats received a unilateral chemical lesion (by injection of 6-hydroxy-Dopamine) in the substantia nigra, which is followed by rotational movement. When L-DOPA is given i.p. (in two doses, 13 and 26 mg/kg) the direction of rotational movement is reversed, and the duration of the reversed rotational motion was measured in minutes. The same doses of L-DOPA were then given in the experimental groups in combination with 2 mg/kg of either MIF or the MIF analogs, all i.p., or by gastric tube in a dose of 4 mg/kg, and the duration, in minutes, of reversed rotational behavior was observed.

[3] = tested on: reserpinized male Long-Evans rats; experiment: L-DOPA potentiation: locomotor activity of reserpinized rats given agent i.p. with Carbi-DOPA and L-DOPA (second series); conditions: 2 mg/kg i.p. with 10 mg/kg Carbi-DOPA and 100 mg/kg L-DOPA
Protocol: as §1
In the second series of tests, male Long-Evans rats prepared and reserpinized as described for the first series, were treated i.p. with 2 mg/kg of MIF or MIF analog, 10 mg/kg of Carbi-DOPA, a competitive inhibitor of DOPA-decarboxylase (to prolong the L-DOPA effect), and 100 mg/kg of L-DOPA. The control group received the latter two substances, but no MIF or MIF analog. Activity of the rats was measured, in counts/10 minutes with a digital printout activity meter, at 15, 35, 55, 75, 95 and 105 minutes after injection.

[4] = 10 ng directly into the CSF (lateral ventricle)
[5] = 100 ng directly into the CSF (lateral ventricle)
[6] = Injection: L-DOPA i.p. (13 and 26 mg/kg) alone or in combination with 2 mg/kg MIF or analog i.p.
[7] = Oral: L-DOPA i.p. (13 and 26 mg/kg) alone or in combination with 4 mg/kg MIF or analog by gastric tube

SMILES	% Increase in Activity, Counts/10 Minutes [1, 4]	% Increase in Activity, Counts/10 Minutes [1, 5]	Duration of Reversed Rotational Behavior [2, 6] [min]	Duration of Reversed Rotational Behavior [2, 7] [min]	% Increase in Activity, counts/10 min. ([3]; 15 min. after injection) [%]	% Increase in Activity, counts/10 min. ([3]; 35 min. after injection) [%]	% Increase in Activity, counts/10 min. ([3]; 55 min. after injection) [%]	% Increase in Activity, counts/10 min. ([3]; 75 min. after injection) [%]	% Increase in Activity, counts/10 min. ([3]; 95 min. after injection) [%]	% Increase in Activity, counts/10 min. ([3]; 105 min. after injection) [%]
CC(C)C[C@H](NC(=O)[C@@H]1CCCN1)C(=O)NCC(N)=O [MIF, Pro--L--Leu--Gly--NH2, reference compound] (H-Pro-Leu-Gly-NH2)	No effect	No effect	55 ± 6.2	58 ± 5.3	–	–	–	–	–	–
CC(C)C[C@@H](NC(=O)[C@@H]1CCC(=O)N1)C(=O)NCC(N)=O [pGlu--D--Leu--Gly--NH2] ([pGlu]-[dL]-Gly-NH2)	240%	360%	96 ± 7.9	110 ± 9.3	126	538	2450	2036	1035	478
N[C@@H](Cc1ccc(O)c(O)c1)C(=O)O [L-DOPA]	–	–	38 ± 3.4	38 ± 3.4	–	–	–	–	–	–

— patent US4278595A, “Orally active MIF analogs with an effect on the central nervous system” (Vega Laboratories, Inc., priority 1979, dated 1981)
